Patent publication US12060360B2, “Lysyl oxidase inhibitors” (The Institute of Cancer Research: Royal Cancer Hospital, priority 2017, dated 2024)

Biological target: T1, LOX (Mus musculus, UniProt P28301)
T1 construct: Full length LOX cDNA was then PCR cloned into pEGFP-N1 (Clonetech), or biosensor vector proGFP2-N1; expressed in transfected cells; host or cells: MDCK cells grown as cysts on Matrigel, G418-selected
T1 sequence (P28301 163-411): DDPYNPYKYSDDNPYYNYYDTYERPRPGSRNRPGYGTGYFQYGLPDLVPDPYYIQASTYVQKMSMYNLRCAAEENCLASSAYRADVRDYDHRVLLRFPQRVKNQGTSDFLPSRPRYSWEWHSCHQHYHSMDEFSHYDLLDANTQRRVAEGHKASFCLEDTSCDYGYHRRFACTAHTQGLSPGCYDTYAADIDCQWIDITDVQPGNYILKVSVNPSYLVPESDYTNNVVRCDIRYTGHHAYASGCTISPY
Test: LOX activity in cysts assay (LOX-roGFP2 biosensor, MDCK cysts)
Assay type: cell-based
Conditions: MDCK cysts; for inhibition at 10 µM: inhibitor added 30 min prior to imaging, read-out: LOX biosensor inhibition (cyst) @ 10 uM; for inhibition at 10 µM / inhibition at 2.5 µM: DMSO = 0%, BAPN 1 mM = 100% inhibition; for inhibition at 2.5 µM: 2.5 uM (stated in cell), read-out: LOX biosensor inhibition (cyst) @ 2.5 uM; for IC50: roGFP2 ratio at basal surface, read-out: LOX biosensor IC50 (cyst)
Description: LOX Activity in Cysts Assay (Tang et al, 2017).
All cell lines used in this study were purchased from American Type Culture Collection (ATCC). Mycoplasma contamination was routinely monitored by PCR. Cells used were not found to be Mycoplasma positive. MDCK cell lines were cultured in Dulbecco's Modified Eagle Medium (DMEM) supplemented with 10% fetal bovine serum (FBS) and 1% Penicillin Streptomycin solution (Pen Strep). For GFP constructs transfection in MDCK cells, lipofectamine 3000 was used according to manufactures protocols. Cells were either selected with G418 (Life Technologies) at 5 mg/ml. All cell culture reagents were purchased from Life Technologies.
To produce MDCK cysts, cells were cultured on Matrigel (Corning) with 2% Matrigel supplemented in DMEM with 10% FBS. Cysts were allowed to form for 10 days before subsequent studies.
Mouse LOX cDNA was purchased from OriGene. Full length LOX cDNA was then PCR cloned into pEGFP-N1 (Clonetech), or biosensor vector proGFP2-N1 (Hanson, 2004) using the following primers, […] (forward primer) and […] (reverse primer). For the insertion into pEGFP-N1 or proGFP2-N1, NheI and XhoI restriction sites were added to forward and reverse primers accordingly. Mutant LOX constructs were made using QuickChange II site-directed mutagenesis kit (Agilent Technologies) following manufacture's protocol using LOX-GFP as template. To generate, roGFP2 versions of LOX mutant constructs, LOX mutant cDNA was transferred from pEGFP-N1 to proGFP2-N1 using NheI and XhoI.
All photomicrographs were taken with a Leica TCS SP8 X confocal system. For LOX biosensor imaging, live MDCK cysts were used. The oxidised biosensor was excited using a 405 nm laser, while the reduced biosensor was excited with a 488 nm laser. Emission of the biosensor was recorded at 500 nm˜530 nm range using sequential scans. Ratio images were generated following a published protocol {Kardash, 2011 #376}. Note, while the published protocol generates YFP/CFP ratio images, we used it to generate Oxidised/Reduced (roGFP2 ratio) ratio images. The roGFP2 ratio at the basal surface of MDCK cysts was used to indicate LOX inhibition. LOX inhibitors were added 30 min prior to imaging.
For clarity, readout for DMSO treated cysts represents 0% inhibition (no inhibition) and readout for BAPN at 1 mM is used as 100% inhibition (full inhibition).

Compound	inhibition at 10 µM [%]	inhibition at 2.5 µM [%]	IC50 [nM]
CCOc1ccc(N2C[C@H]3CN(C(=O)c4ccccn4)C[C@@H]2C(C)(C)C3)cc1 [Example 51, ((1S,5S)-6-(4-ethoxyphenyl)-9,9-dimethyl-3,6-diazabicyclo[3.2.2]nonan-3-yl)(pyridin-2-yl)methanone]	75	–	–
CCOc1ccc(N2C[C@H]3CN(Cc4ccc(Cl)cc4)C[C@@H]2C(C)(C)C3)cc1 [Example 40, (1R,5S)-3-(4-chlorobenzyl)-6-(4-ethoxyphenyl)-9,9-dimethyl-3,6-diazabicyclo[3.2.2]nonane]	68	–	–
CCOc1ccc(N2C[C@H]3CN(C(=O)CCC#N)C[C@@H]2C(C)(C)C3)cc1 [Example 50, 4-((1S,5S)-6-(4-Ethoxyphenyl)-9,9-dimethyl-3,6-diazabicyclo[3.2.2]nonan-3-yl)-4-oxobutanenitrile]	57	–	–
CCCCc1ccc(N2C[C@H]3CN(C(=O)NCCO)C[C@@H]2C(C)(C)C3)cc1 [Example 33, (1S,5S)-6-(4-butylphenyl)-N-(2-hydroxyethyl)-9,9-dimethyl-3,6-diazabicyclo[3.2.2]nonane-3-carboxamide]	69.3	–	–
C#CCCCN1C[C@@H]2CN(c3ccc(OCC)cc3)[C@H](C1)C(C)(C)C2 [Example 44, (1R,5S)-6-(4-ethoxyphenyl)-9,9-dimethyl-3-(pent-4-yn-1-yl)-3,6-diazabicyclo[3.2.2]nonane]	–	66	310
CC1(C)C[C@@H]2CN(C(=O)NCCO)C[C@H]1N(c1ccc(N3CCC(F)(F)CC3)cc1)C2 [Example 30, (1S,5S)-6-(4-(4,4-difluoropiperidin-1-yl)phenyl)-N-(2-hydroxyethyl)-9,9-dimethyl-3,6-diazabicyclo[3.2.2]nonane-3-carboxamide]	100	–	330
CCCS(=O)(=O)N1C[C@@H]2CN(c3ccc(OCC)cc3)[C@H](C1)C(C)(C)C2 [Example 54, (1S,5S)-6-(4-ethoxyphenyl)-9,9-dimethyl-3-(propylsulfonyl)-3,6-diazabicyclo[3.2.2]nonane]	54	–	–
COc1cc(OC)cc(N2C[C@H]3CN(C(=O)N4CCS(=O)(=O)CC4)C[C@@H]2C(C)(C)C3)c1 [Example 65, ((1S,5S)-6-(3,5-dimethoxyphenyl)-9,9-dimethyl-3,6-diazabicyclo[3.2.2]nonan-3-yl)(1,1-dioxidothiomorpholino)methanone]	88	–	–
CC1(C)C[C@@H]2CN(c3ccc(N4CCS(=O)(=O)CC4)cc3)[C@H]1CCN2C(=O)N1CCS(=O)(=O)CC1 [Example 9, (1,1-dioxidothiomorpholino)((1R,5S)-6-(4-(1,1-dioxidothiomorpholino)phenyl)-9,9-dimethyl-2,6-diazabicyclo[3.2.2]nonan-2-yl)methanone]	100	–	690
CCOc1ccc(N2C[C@H]3CN(C(=O)N4CC[C@H](O)C4)C[C@@H]2C(C)(C)C3)cc1 [Example 15, ((1S,5S)-6-(4-ethoxyphenyl)-9,9-dimethyl-3,6-diazabicyclo[3.2.2]nonan-3-yl)((S)-3-hydroxypyrrolidin-1-yl)methanone]	84	–	–
CC1(C)C[C@@H]2CN(C(=O)NCCO)C[C@H]1N(c1ccc(Oc3ccccn3)cc1)C2 [Example 28, (1S,5S)-N-(2-hydroxyethyl)-9,9-dimethyl-6-(4-(pyridin-2-yloxy)phenyl)-3,6-diazabicyclo[3.2.2]nonane-3-carboxamide]	100	–	–
CCOc1ccc(N2C[C@H]3CN(S(=O)(=O)c4ccc(F)cc4)C[C@@H]2C(C)(C)C3)cc1 [Example 55, (1S,5S)-6-(4-ethoxyphenyl)-3-((4-fluorophenyl)sulfonyl)-9,9-dimethyl-3,6-diazabicyclo[3.2.2]nonane]	100	–	–
CCOc1ccc(N2C[C@@H]3CC4(CCCCC4)[C@H]2CCN3C(=O)NCCO)cc1 [Example 23, (1S,5R)-6-(4-ethoxyphenyl)-N-(2-hydroxyethyl)-2,6-diazaspiro[bicyclo[3.2.2]nonane-9,1′-cyclohexane]-2-carboxamide]	100	–	370
CC1(C)C[C@@H]2CN(C(=O)NCCO)C[C@H]1N(c1ccc(N3CCS(=O)(=O)CC3)cc1)C2 [Example 5, (1S,5S)-6-(4-(1,1-dioxidothiomorpholino)phenyl)-N-(2-hydroxyethyl)-9,9-dimethyl-3,6-diazabicyclo[3.2.2]nonane-3-carboxamide]	62	–	–
CC1(C)C[C@@H]2CN(C(=O)N3CCN(S(C)(=O)=O)CC3)C[C@H]1N(c1ccc(N3CCS(=O)(=O)CC3)cc1)C2 [Example 61, ((1S,5S)-6-(4-(1,1-dioxidothiomorpholino)phenyl)-9,9-dimethyl-3,6-diazabicyclo[3.2.2]nonan-3-yl)(4-(methylsulfonyl)piperazin-1-yl)methanone]	79	–	–
C#CCN1C[C@@H]2CN(c3ccc(OCC)cc3)[C@H](C1)C(C)(C)C2 [Example 41, (1R,5S)-6-(4-ethoxyphenyl)-9,9-dimethyl-3-(prop-2-yn-1-yl)-3,6-diazabicyclo[3.2.2]nonane]	87	–	–
CCOc1ccc(N2C[C@H]3CN(C4=NCCO4)C[C@@H]2C(C)(C)C3)cc1 [Example 38, 2-((1S,5S)-6-(4-ethoxyphenyl)-9,9-dimethyl-3,6-diazabicyclo[3.2.2]nonan-3-yl)-4,5-dihydrooxazole]	59	–	–
CC1(C)C[C@@H]2CN(C(=O)NCCO)C[C@H]1N(c1ccc(C=O)cc1)C2 [Example 37, (1 S,5S)-6-(4-Formylphenyl)-N-(2-hydroxyethyl)-9,9-dimethyl-3,6-diazabicyclo[3.2.2]nonane-3-carboxamide]	86	–	–
CCOc1ccc(N2C[C@H]3CN(C(=O)N4CCC(N5CCCC5)CC4)C[C@@H]2C(C)(C)C3)cc1 [Example 18, ((1S,5S)-6-(4-ethoxyphenyl)-9,9-dimethyl-3,6-diazabicyclo[3.2.2]nonan-3-yl)(4-(pyrrolidin-1-yl)piperidin-1-yl)methanone]	84	–	–
CCOc1ccc(N2C[C@H]3CN(C(=O)CCc4cccnc4)C[C@@H]2C(C)(C)C3)cc1 [Example 52, 1-((1S,5S)-6-(4-ethoxyphenyl)-9,9-dimethyl-3,6-diazabicyclo[3.2.2]nonan-3-yl)-3-(pyridin-3-yl)propan-1-one]	100	–	–
CCOc1ccc(N2C[C@H]3CN(C(=O)Nc4ccc(OC)cc4)C[C@@H]2C(C)(C)C3)cc1 [Example 1, (1S,5S)-6-(4-ethoxyphenyl)-N-(4-methoxyphenyl)-9,9-dimethyl-3,6-diazabicyclo[3.2.2]nonane-3-carboxamide]	91	–	–
CC1(C)C[C@@H]2CN(C(=O)N3CCS(=O)(=O)CC3)C[C@H]1N(c1ccc3c(c1)OCCO3)C2 [Example 63, ((1 S,5S)-6-(2,3-dihydrobenzo[b][1,4]dioxin-6-yl)-9,9-dimethyl-3,6-diazabicyclo[3.2.2]nonan-3-yl)(1,1-dioxidothiomorpholino)methanone]	100	–	–
CCNC(=O)N1C[C@@H]2CN(c3ccc(F)cc3)[C@H](C1)C(C)(C)C2 [Example 2, (1 S,5S)—N-ethyl-6-(4-fluorophenyl)-9,9-dimethyl-3,6-diazabicyclo[3.2.2]nonane-3-carboxamide]	–	92	–
CCOc1ccc(N2C[C@H]3CN(C(=O)N(C)CCC#N)C[C@@H]2C(C)(C)C3)cc1 [Example 16, (1S,5S)-N-(2-cyanoethyl)-6-(4-ethoxyphenyl)-N,9,9-trimethyl-3,6-diazabicyclo[3.2.2]nonane-3-carboxamide]	88	–	–
CCOc1ccc(N2C[C@H]3CN(C(=O)Nc4cc(C)n[nH]4)C[C@@H]2C(C)(C)C3)cc1 [Example 25, (1S,5S)-6-(4-ethoxyphenyl)-9,9-dimethyl-N-(3-methyl-1H-pyrazol-5-yl)-3,6-diazabicyclo[3.2.2]nonane-3-carboxamide]	73	–	–
